Assay results from PubChem BioAssay (NCI).
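In this assay, cells in 96-well plates receive the compound at five concentrations for 48 hours. Endpoints are linearly interpolated between the surrounding concentrations. TGI: total growth inhibition.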

Experiments:
Test in all cases: NCI tumour cell line growth inhibition, 48 h
DMS 273 small cell lung = test system: DMS 273 small cell lung
OVCAR-8 ovarian = test system: OVCAR-8 ovarian
M19-MEL melanoma = test system: M19-MEL melanoma
SK-MEL-5 melanoma = test system: SK-MEL-5 melanoma
786-0 renal = test system: 786-0 renal
XF 498 CNS = test system: XF 498 CNS
HCT-15 colon = test system: HCT-15 colon
SW-620 colon = test system: SW-620 colon
NCI-H226 lung = test system: NCI-H226 lung
UACC-257 melanoma = test system: UACC-257 melanoma
DMS 114 small cell lung = test system: DMS 114 small cell lung
SNB-75 CNS = test system: SNB-75 CNS
SN12C renal = test system: SN12C renal
SK-MEL-2 melanoma = test system: SK-MEL-2 melanoma
KM20L2 colon = test system: KM20L2 colon
SK-OV-3 ovarian = test system: SK-OV-3 ovarian
TK-10 renal = test system: TK-10 renal
OVCAR-3 ovarian = test system: OVCAR-3 ovarian
MALME-3M melanoma = test system: MALME-3M melanoma
SNB-78 CNS = test system: SNB-78 CNS
NCI-H23 lung = test system: NCI-H23 lung
NCI-H460 lung = test system: NCI-H460 lung
LOX IMVI melanoma = test system: LOX IMVI melanoma
KM12 colon = test system: KM12 colon
CAKI-1 renal = test system: CAKI-1 renal
IGROV1 ovarian = test system: IGROV1 ovarian
HOP-18 NSCLC = test system: HOP-18 NSCLC
HOP-62 NSCLC = test system: HOP-62 NSCLC
COLO 205 colon = test system: COLO 205 colon
U251 CNS = test system: U251 CNS
A549 NSCLC = test system: A549 NSCLC
HL-60(TB) leukemia = test system: HL-60(TB) leukemia
MOLT-4 leukemia = test system: MOLT-4 leukemia
UACC-62 melanoma = test system: UACC-62 melanoma
HCC-2998 colon = test system: HCC-2998 colon
K-562 leukemia = test system: K-562 leukemia
RXF 393 renal = test system: RXF 393 renal
SF-295 CNS = test system: SF-295 CNS
A498 renal = test system: A498 renal
OVCAR-4 ovarian = test system: OVCAR-4 ovarian
UO-31 renal = test system: UO-31 renal
RPMI-8226 leukemia = test system: RPMI-8226 leukemia
HT29 colon = test system: HT29 colon
EKVX NSCLC = test system: EKVX NSCLC
SNB-19 CNS = test system: SNB-19 CNS
ACHN renal = test system: ACHN renal
SF-539 CNS = test system: SF-539 CNS
DLD-1 colon = test system: DLD-1 colon
M14 melanoma = test system: M14 melanoma
CCRF-CEM leukemia = test system: CCRF-CEM leukemia
LXFL 529 NSCLC = test system: LXFL 529 NSCLC
OVCAR-5 ovarian = test system: OVCAR-5 ovarian
HCT-116 colon = test system: HCT-116 colon

Measured: TGI

CCc1c(OC(C)=O)c2c(NC3OC(COC(C)=O)C(OC(C)=O)C(OC(C)=O)C3OC(C)=O)nc(OC)nc2oc1=O (stereo not drawn)
> 100 µM: DMS 273 small cell lung | OVCAR-8 ovarian | M19-MEL melanoma | SK-MEL-5 melanoma | 786-0 renal | XF 498 CNS | HCT-15 colon | SW-620 colon | NCI-H226 lung | UACC-257 melanoma | DMS 114 small cell lung | SNB-75 CNS | SN12C renal | SK-MEL-2 melanoma | KM20L2 colon | SK-OV-3 ovarian | TK-10 renal | OVCAR-3 ovarian | MALME-3M melanoma | SNB-78 CNS | NCI-H23 lung | NCI-H460 lung | LOX IMVI melanoma | KM12 colon | CAKI-1 renal | IGROV1 ovarian | HOP-18 NSCLC | HOP-62 NSCLC | COLO 205 colon | U251 CNS | A549 NSCLC | HL-60(TB) leukemia | MOLT-4 leukemia | UACC-62 melanoma | HCC-2998 colon | K-562 leukemia | RXF 393 renal | SF-295 CNS | A498 renal | OVCAR-4 ovarian | UO-31 renal | RPMI-8226 leukemia | HT29 colon | EKVX NSCLC | SNB-19 CNS | ACHN renal | SF-539 CNS | DLD-1 colon | M14 melanoma | CCRF-CEM leukemia | LXFL 529 NSCLC | OVCAR-5 ovarian | HCT-116 colon
